In patent US8962244B2, “Compounds for modulating RNA binding proteins and uses therefor” (University of Massachusetts, priority 2009, dated 2015):
Read-outs that look alike come from different tables or passages of the source.

Experiments:
MEX-3 = assay: Fluorescence polarization screening of MEX-3 binding to fluorescein-labeled SEQ 14 RNA; conditions: 192 μM test compound; 80 nM MBP-MEX-3, no zinc acetate; lowest score = greatest inhibition
MEX-5 [1] = molecular target: T1, MEX-5 (Caenorhabditis elegans, UniProt Q9XUB2); assay: Fluorescence polarization screening of MEX-5 binding to fluorescein-labeled TCR2 RNA; conditions: for IC50: further screening as described above (fluorescence polarization), dose response; for remaining activity at 192 µM: read-out: MEX-5 score
T1 construct: The fragment of mex-5 containing the TZF domain (amino acids 236-350) was amplified; made in house; host or cells: Escherichia coli JM109
T1 sequence (Q9XUB2 236-350): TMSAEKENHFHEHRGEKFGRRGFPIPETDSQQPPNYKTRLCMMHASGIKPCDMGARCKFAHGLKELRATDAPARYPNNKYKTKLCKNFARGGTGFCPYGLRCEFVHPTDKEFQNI
Text: The expression and purification of recombinant MEX-5 protein has previously been described in Pagano, J. M., Farley, B. M., McCoig, L. M. and Ryder, S. P. (2007) “Molecular basis of RNA recognition by the embryonic polarity determinant MEX-5;” J Biol Chem; 282, 8883-8894. The fragment of mex-5 containing the TZF domain (amino acids 236-350) was amplified from a commercially available ORFeome clone (Open Biosystems) and sub-cloned into the vector pMal-c (NEB), which encodes maltose binding protein as an N-terminal fusion. This construct is termed pMal-MEX-5 (236-350).
MEX-5 is expressed in Escherchia. coli JM109 liquid cultures grown at 37° C. Cultures were induced during mid log phase by the addition of 0.1 mM isopropyl 1-thio-β-D-galactopyranoside (IPTG) and allowed to grow for three hours. An amount of 100 μM zinc acetate (final concentration) was added at the time of induction. The pelleted cells were resuspended in lysis buffer (50 mM Tris pH 8.8, 200 mM NaCl, 2 mM DTT, EDTA free protease inhibitor tablet (Roche), 100 μM Zn(OAc)2) and lysed by sonication. The soluble protein was purified in three steps using standard chromatography methods: (1) amylose affinity (NEB), (2) Hi-TRAP-Q (GE Healthcare), and (3) Hi-TRAP-S (GE Healthcare). The Q buffer was composed of 50 mM Tris, pH 8.8, 20 mM-1500 mM NaCl, 2 mM DTT, and 100 μM Zn(OAc)2. The S buffer was composed of 50 mM MOPS, pH 6.0, 20 mM-1500 mM NaCl, 2 mM DTT, 100 μM Zn(OAc)2. The pure fractions, determined by coomassie-stained SDS-PAGE, were dialyzed into storage buffer (20 mM Tris, pH 8.0, 25 mM NaCl, 100 μM Zn(OAc)2, 2 mM DTT). The protein concentration was determined by measuring absorbance at 280 nm and the calculated extinction coefficient. The protein was stored at 50 μM concentration at 4° C.
All RNA oligonucleotides were chemically synthesized by Dharmacon or Integrated DNA Technologies. Upon arrival, each RNA was deprotected and stored according to the manufacturer's instructions. Prior to use, the RNA was resuspended in 10 mM Tris-HCl, pH 8.0, 0.1 mM EDTA, and the concentration determined by UV spectrophotometry using the calculated extinction coefficient at 260 nm based on the specific sequence. The sequence of the MEX-5 binding RNA (TCR2) is […] (SEQ ID NO:1). The POS-1 binding RNA (BMF018) is […] (SEQ ID NO:2). The MEX-3 binding RNA (SEQ 14) is […] (SEQ ID NO:3).
The RNA used for the small molecule screen was labeled at the 3′-end with fluorescein by Dharmacon during synthesis. In a few cases, follow up experiments were performed with post-synthetically labeled RNA. In this case, fluorescein 5-thiosemicarbazide (FTSC, Invitrogen) was used to 3′-end label each RNA after treatment with sodium periodate (see Reines, S. A. and Cantor, C. R. (1974) “New fluorescent hydrazide reagents for the oxidized 3′-terminus of RNA” Nucleic Acids Res. 1, 767-786). A representative 50 μl reaction consisted of 0.5 nanomoles RNA, 100 mM NaOAc, pH 5.1, and 5 nanomoles NaIO4. After the reaction was complete (90 minutes at room temperature), the sample was ethanol precipitated by adding 1 μl RNase free glycogen (Invitrogen 20 μg/μl), 1/20th volume of 5 M NaCl, and 2 volumes of 100% ice-cold ethanol. The resulting pellet was resuspended in 50 μl of 100 mM NaOAc, pH 5.1 containing 1 mM FTSC and was allowed to react overnight at 4° C. in the dark. The unreacted label was removed by ethanol precipitation with resuspension of the pellet in a small volume of TE, and purification over a Roche G-25 size exclusion spin column. The labeling efficiency is determined by calculating the ratio of fluorescein absorbance at 490 nm to RNA-fluorescein absorbance at 260 nm. Typical efficiencies are 60-80%.
The ability of MEX-5 to associate with RNA was monitored by fluorescence polarization using a victor V3 or victor V2V plate reader (Perkin Elmer) in 384-well FluoTrak microplates (Grenier). […]

POS-1 = molecular target: T2, POS-1 (Caenorhabditis elegans, UniProt G5EF15); assay: Fluorescence polarization screening of POS-1 binding to fluorescein-labeled BMF018 RNA; conditions: read-out: POS-1 score
T2 construct: 6-his tag (N); made in house; host or cells: E. coli BL21 (DE3) Gold
T2 sequence (G5EF15 80-180): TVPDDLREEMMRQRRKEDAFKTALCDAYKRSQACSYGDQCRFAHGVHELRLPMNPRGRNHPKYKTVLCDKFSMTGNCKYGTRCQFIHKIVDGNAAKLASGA

MEX-5 [2] = molecular target: T1, MEX-5; assay: Dose response gel shift assay, MEX-5 with TCR2 RNA; type: binding; conditions: 120 nM MEX-5, 2-3 nM fluorescein labeled TCR2 RNA
Procedure: A further dose response assay was performed on select compounds of the invention as described below. A sub-saturating concentration of MEX-5 or POS-1 (120 nM) was equilibrated with limiting fluorescein labeled RNA (2-3 nM, TCR2 RNA or MEX-3 UTR fragment RNA respectively) in the presence of varying concentrations of compound. Following equilibration, the reactions were loaded onto a 5% slab polyacrylamide gel and subjected to electrophoresis for about 1 hour to separate protein-RNA complex from free RNA. The gel was scanned on a FUJI FLA-5000 imager, and the fraction of bound RNA determined by dividing the intensity of the bound RNA by the intensity of the bound RNA plus the free RNA. The […] was plotted as a function of compound concentration and fit to a sigmoidal dose response function in order to determine the IC50, the concentration that gives half maximal inhibition.

[3] = 192 μM test compound, score = polarization relative to no-drug and no-protein controls, 0.25 = 75% inhibition, lowest score = greatest inhibition

| Structure (SMILES) | remaining activity at 192 µM (POS-1; [3]) [%] | remaining activity at 192 µM (MEX-5 [1]; [3]) [%] | further results |
| --- | --- | --- | --- |
| Cc1ccc(C(CC(=O)N2CCCC2)c2ccco2)cc1 (stereo not shown) [FA] | – | – | MEX-3 score (MEX-3): 0.2093 |
| O=C1C2CC=C(Cl)CC2C(=O)N1c1nnc[nH]1 (stereo not shown) [DJ] | 13.8 | – | IC50 (MEX-5 [1]): 3.5 µM; IC50 (MEX-5 [2]): 3.8 µM |
| COc1ccc(N2C(=O)NC(=O)/C(=C/c3cccc(OC(=O)c4cccs4)c3)C2=O)cc1Cl [AV] | – | – | remaining activity at 192 µM (MEX-5 [1]): 14%; remaining activity at 192 µM (POS-1): 10.9% |
| O=C(O)CCn1cc(C=C2C(=O)NC(=S)NC2=O)c(-c2cc3ccccc3oc2=O)n1 [BA] | – | – | remaining activity at 192 µM (MEX-5 [1]): 15.2%; remaining activity at 192 µM (POS-1): 22.2% |
| COc1ccc(CCNC(=O)c2ccc(C(=O)NCCc3ccc(OC)c(OC)c3)nc2)cc1OC [EX] | – | – | MEX-3 score (MEX-3): 0.0674 |
| O=c1cc(-c2ccccc2)c2ccc(O)c(O)c2o1 [I] | 0.543 | -0.142 | – |
| COc1ccc(Cl)cc1C(=O)Nc1ccc(S(=O)(=O)Nc2nccs2)cc1 [BK] | – | 18.4 | IC50 (MEX-5 [1]): 540 µM; IC50 (MEX-5 [2]): 110 µM |
| COc1ccc(NC(=S)c2nc3ccccc3[nH]2)cc1 [T] | 8.99 | 5.51 | – |
| O=C(O)c1cc(NC(=O)c2cccc(N3C(=O)CCC3=O)c2)cc(C(=O)O)c1 [AH] | 14.6 | 8.76 | – |
| CCOC(=O)c1ccccc1OC(=O)c1ccc2c(c1)C1C=CCC1C(C(=O)O)N2 (stereo not shown) [B] | 5.51 | -3.69 | – |
| O=[N+]([O-])c1cccc(/C(=N\O)Nc2nnc(-c3cccnc3)s2)c1 [EZ] | – | – | MEX-3 score (MEX-3): 0.124 |
| Cc1n[nH]c(SCc2ccc(CSc3nc(C)n[nH]3)cc2)n1 [AA] | 0.702 | 7.14 | – |
| CCOC(=O)c1sc(NC(=S)NC(=O)c2cc3ccccc3o2)c(C(=O)OCC)c1C [FB] | – | – | MEX-3 score (MEX-3): 0.2585 |
| O=C1NN(c2ccccc2)C(=O)/C1=C\c1cccc(OC(=O)c2cccs2)c1 [CA] | 23 | 21.6 | – |
| O=S(=O)(Nc1nc(-c2ccccc2)c(-c2ccccc2)o1)c1ccc(Cl)cc1 [CO] | 16 | 24.1 | – |
| CCOc1cc(C(NC(C)=O)c2cc([N+](=O)[O-])c3cccnc3c2O)ccc1O (stereo not shown) [AL] | 12.3 | 10.4 | – |
| Cc1[nH]nc(-c2ccc(O)c(O)c2O)c1-c1ccccc1 [P] | 4.3 | 3.42 | – |
| O=C(Cn1cnc2ccccc2c1=O)Nc1ccc(S(=O)(=O)Nc2nccs2)cc1 [BJ] | 11.9 | 18.2 | – |
| O=C(Oc1ccc2ccccc2c1)c1ccc2c(c1)C1C=CCC1C(C(=O)O)N2 (stereo not shown) [H] | 1.95 | -0.336 | – |
| O=[N+]([O-])c1ccc(S(=O)(=O)Nc2cc(Cl)ccc2O)cc1 [AD] | 8.27 | 8.04 | – |

| Structure (SMILES) | remaining activity at 192 µM (POS-1; [3]) [%] | remaining activity at 192 µM (MEX-5 [1]; [3]) [%] | further results |
| --- | --- | --- | --- |
| Cc1ccc(O)c(NS(=O)(=O)c2ccc([N+](=O)[O-])cc2)c1 [CD] | 12.4 | 22.6 | – |
| CCOc1ccc(NS(=O)(=O)c2ccc(C)c(C(N)=O)c2)cc1 [EY] | – | – | MEX-3 score (MEX-3): 0.08965 |
| O=C(Oc1ccc2c(c1)C1C=CCC1C(C(=O)O)N2)c1ccc(Cl)cc1Cl (stereo not shown) [K] | 5.81 | 0.00138 | – |
| COC(=O)c1ccccc1OC(=O)c1ccc2c(c1)C1C=CCC1C(C(=O)O)N2 (stereo not shown) [A] | 7.5 | -10.3 | – |
| O=S(=O)(Nc1ccc(O)c(NS(=O)(=O)c2ccccc2)c1)c1ccccc1 [F] | -2.79 | -0.711 | – |
| Cc1n[nH]c(SCc2cccc(CSc3nc(C)n[nH]3)c2)n1 [L] | -0.0864 | 1.21 | – |
| O=C(O)c1ccc(C2Nc3ccc([N+](=O)[O-])cc3C3c4ccccc4CC23)cc1 (stereo not shown) [AB] | 10.9 | 7.3 | – |
| O=C(O)C1CCC(N2C(=O)c3c(Cl)c(Cl)c(Cl)c(Cl)c3C2=O)CC1 (stereo not shown) [AO] | 6.81 | 10.6 | – |
| Cn1c(S)nnc1-c1ccccc1O [Z] | 12.7 | 6.88 | – |
| O=C(CSc1nc2ccccc2s1)Nc1ccc(S(=O)(=O)Nc2nccs2)cc1 [DG] | 10.9 | – | IC50 (MEX-5 [1]): 160 µM; IC50 (MEX-5 [2]): 170 µM |
| Sc1nnc(CSCc2ccccc2Cl)n1-c1ccccc1 [BL] | 27.6 | 18.8 | – |
| CCCCN1C(=O)/C(=c2\sc3nc(-c4ccccc4OC(C)=O)nn3c2=O)c2ccccc21 [M] | 11.7 | 1.62 | – |
| O=S(=O)(Nc1ccc(Cl)cc1O)c1ccccc1 [D] | -3.79 | -1.58 | – |
| O=C1NN(c2cccc(Br)c2)C(=O)/C1=C\c1cccc(OC(=O)c2cccs2)c1 [BI] | 10.6 | 17.9 | – |
| COc1ccc(C(=O)NC(=S)Nc2ccc(C(=O)O)c(Cl)c2)cc1[N+](=O)[O-] [BF] | 9.05 | 16.7 | – |
| Oc1ccc(-c2csc(Nc3cccc4ccccc34)n2)cc1O [AY] | 18 | 14.1 | – |
| O=C(O)c1ccccc1NC(=S)NC(=O)c1sc2ccccc2c1Cl [BP] | 4.54 | 19.2 | – |
| O=C(Nc1nnc[nH]1)c1ccccc1O [AI] | 2.5 | 9.13 | – |
| CC(=O)Oc1ccc(S(=O)(=O)c2ccc(OC(C)=O)c(OC(C)=O)c2)cc1OC(C)=O [J] | 8.51 | -0.0941 | – |
